In patent publication US20250098679A1, “HERBICIDAL PYRIDONE DERIVATIVES” (SYNGENTA CROP PROTECTION AG, priority 2021, published 2025):

How the values were obtained:
Type in all cases: in vivo
Conditions in all cases: evaluated after 13 days
[1] = tested on: Amaranthus palmeri (AMAPA); assay: Post-emergence Test, Amaranthus palmeri (AMAPA); design: key: 5=81-100%, 4=61-80%, 3=41-60%, 2=21-40%, 1=0-20% damage
Method in brief: (§1)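 Pots sprayed with compound in acetone/water (50:50) with 0.5% Tween 20, at 1000 g/ha unless noted, glasshouse 24/16 °C, 14 h light, 65% humidity. Damage scored 13 days after spraying on a five-point scale (5=81-100% to 1=0-20%).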

Zea mays (ZEAMX) [2] = assay: Pre-emergence Test, Zea mays (ZEAMX)
[3] = tested on: Amaranthus retoflexus (AMARE); assay: Pre-emergence Test, Amaranthus retoflexus (AMARE)
[4] = tested on: Amaranthus palmeri (AMAPA); assay: Pre-emergence Test, Amaranthus palmeri (AMAPA)
[5] = tested on: Echinochloa crus-galli (ECHCG); assay: Post-emergence Test, Echinochloa crus-galli (ECHCG); design: key to percentage damage caused to the plant, ECHCG (five-point scale): 5=81-100%, 4=61-80%, 3=41-60%, 2=21-40%, 1=0-20% damage
Method in brief: as §1

[6] = tested on: Ipomoea hederacea (IPOHE); assay: Pre-emergence Test, Ipomoea hederacea (IPOHE)
Setaria faberi (SETFA) [7] = assay: Post-emergence Test, Setaria faberi (SETFA); design: key to percentage damage caused to the plant, SETFA (five-point scale): 5=81-100%, 4=61-80%, 3=41-60%, 2=21-40%, 1=0-20% damage
Method in brief: as §1

[8] = tested on: Echinochloa crus-galli (ECHCG); assay: Pre-emergence Test, Echinochloa crus-galli (ECHCG)
[9] = tested on: Ipomoea hederacea (IPOHE); assay: Post-emergence Test, Ipomoea hederacea (IPOHE); design: key to percentage damage caused to the plant, IPOHE (five-point scale): 5=81-100%, 4=61-80%, 3=41-60%, 2=21-40%, 1=0-20% damage
Method in brief: as §1

[10] = tested on: Amaranthus retoflexus (AMARE); assay: Post-emergence Test, Amaranthus retoflexus (AMARE); design: key to percentage damage caused to the plant, AMARE (five-point scale): 5=81-100%, 4=61-80%, 3=41-60%, 2=21-40%, 1=0-20% damage
Method in brief: as §1

Setaria faberi (SETFA) [11] = assay: Pre-emergence Test, Setaria faberi (SETFA)
Zea mays (ZEAMX) [12] = assay: Post-emergence Test, Zea mays (ZEAMX); design: key to percentage damage caused to the plant, ZEAMX (five-point scale): 5=81-100%, 4=61-80%, 3=41-60%, 2=21-40%, 1=0-20% damage
Method in brief: as §1

| Structure (SMILES) | percentage damage caused to the plant, AMAPA (five-point scale) ([1]; 250 g/Ha) | percentage damage caused to the plant, AMAPA (five-point scale) ([1]; 1000 g/ha) | Pre-emergence Test ZEAMX, percentage damage caused to the plant (five-point scale) (Zea mays (ZEAMX) [2]; 1000 g/ha) | Pre-emergence Test AMARE, percentage damage caused to the plant (five-point scale) ([3]; 1000 g/ha) | Pre-emergence Test AMAPA, percentage damage caused to the plant (five-point scale) ([4]; 1000 g/ha) | percentage damage caused to the plant, ECHCG (five-point scale) ([5]; 250 g/Ha) | percentage damage caused to the plant, ECHCG (five-point scale) ([5]; 1000 g/ha) | Pre-emergence Test IPOHE, percentage damage caused to the plant (five-point scale) ([6]; 1000 g/ha) | percentage damage caused to the plant, SETFA (five-point scale) (Setaria faberi (SETFA) [7]; 250 g/Ha) | percentage damage caused to the plant, SETFA (five-point scale) (Setaria faberi (SETFA) [7]; 1000 g/ha) | Pre-emergence Test ECHCG, percentage damage caused to the plant (five-point scale) ([8]; 1000 g/ha) | percentage damage caused to the plant, IPOHE (five-point scale) ([9]; 250 g/Ha) | percentage damage caused to the plant, IPOHE (five-point scale) ([9]; 1000 g/ha) | percentage damage caused to the plant, AMARE (five-point scale) ([10]; 250 g/Ha) | percentage damage caused to the plant, AMARE (five-point scale) ([10]; 1000 g/ha) | Pre-emergence Test SETFA, percentage damage caused to the plant (five-point scale) (Setaria faberi (SETFA) [11]; 1000 g/ha) | percentage damage caused to the plant, ZEAMX (five-point scale) (Zea mays (ZEAMX) [12]; 250 g/Ha) | percentage damage caused to the plant, ZEAMX (five-point scale) (Zea mays (ZEAMX) [12]; 1000 g/ha) | Pre-emergence Test ZEAMX, percentage damage caused to the plant (five-point scale) (Zea mays (ZEAMX) [2]; 250 g/Ha (*)) | Pre-emergence Test AMARE, percentage damage caused to the plant (five-point scale) ([3]; 250 g/Ha (*)) | other results |
| --- | --- | --- | --- | --- | --- | --- | --- | --- | --- | --- | --- | --- | --- | --- | --- | --- | --- | --- | --- | --- | --- |
| CCn1c(Cn2ccc(OC(F)F)n2)cc(=O)c(C(=O)O)c1-c1ccc(Cl)c(Cl)c1 [Compound 37, 2-(3,4-dichlorophenyl)-6-[[3-(difluoromethoxy)pyrazol-1-yl]methyl]-1-ethyl-4-oxo-pyridine-3-carboxylic acid] | 2 (2=21-40%) | 4 (4=61-80%) | 5 (5=81-100%) | 1 (1=0-20%) | 2 (2=21-40%) | 4 (4=61-80%) | 4 (4=61-80%) | 4 (4=61-80%) | 4 (4=61-80%) | 5 (5=81-100%) | 5 (5=81-100%) | 4 (4=61-80%) | 2 (2=21-40%) | 2 (2=21-40%) | 1 (1=0-20%) | 5 (5=81-100%) | 1 (1=0-20%) | 4 (4=61-80%) |  |  |  |
| CCn1c(Cn2cc(C(F)(F)F)nc2C)cc(=O)c(C(=O)O)c1-c1ccc(Cl)c(Cl)c1 [Compound 103, 2-(3,4-dichlorophenyl)-1-ethyl-6-[[2-methyl-4-(trifluoromethyl)imidazol-1-yl]methyl]-4-oxo-pyridine-3-carboxylic acid] |  | 1 (1=0-20%) | 0 | 1 (1=0-20%) | 2 (2=21-40%) |  | 1 (1=0-20%) | 0 |  | 1 (1=0-20%) | 1 (1=0-20%) |  | 0 |  | 1 (1=0-20%) | 1 (1=0-20%) |  | 1 (1=0-20%) |  |  |  |
| CCn1c(Cn2ncc3cc(F)ccc32)cc(=O)c(C(=O)O)c1-c1ccc(Cl)c(Cl)c1 [Compound 102, 2-(3,4-dichlorophenyl)-1-ethyl-6-[(5-fluoroindazol-1-yl)methyl]-4-oxo-pyridine-3-carboxylic acid] | 2 (2=21-40%) | 4 (4=61-80%) | 0 | 1 (1=0-20%) | 1 (1=0-20%) | 3 (3=41-60%) | 3 (3=41-60%) | 3 (3=41-60%) | 1 (1=0-20%) | 2 (2=21-40%) | 1 (1=0-20%) | 1 (1=0-20%) | 3 (3=41-60%) | 1 (1=0-20%) | 4 (4=61-80%) | 1 (1=0-20%) | 1 (1=0-20%) | 0 |  |  |  |
| CCn1c(Cn2nc(C(F)(F)F)cc2C(F)(F)F)cc(=O)c(C(=O)O)c1-c1ccc(Cl)c(Cl)c1 [Compound 135, 6-[[3,5-bis(trifluoromethyl)pyrazol-1-yl]methyl]-2-(3,4-dichlorophenyl)-1-ethyl-4-oxo-pyridine-3-carboxylic acid] | 1 (1=0-20%) | 1 (1=0-20%) | 1 (1=0-20%) | 1 (1=0-20%) | 0 | 1 (1=0-20%) |  | 2 (2=21-40%) |  | 4 (4=61-80%) | 1 (1=0-20%) | 2 (2=21-40%) | 3 (3=41-60%) | 1 (1=0-20%) | 2 (2=21-40%) | 0 | 1 (1=0-20%) | 2 (2=21-40%) |  |  |  |
| CCn1c(Cn2nc(C)cc2OC)cc(=O)c(C(=O)O)c1-c1ccc(Cl)c(Cl)c1 [Compound 127, 2-(3,4-dichlorophenyl)-1-ethyl-6-[(5-methoxy-3-methyl-pyrazol-1-yl)methyl]-4-oxo-pyridine-3-carboxylic acid] | 0 | 3 (3=41-60%) | 4 (4=61-80%) | 2 (2=21-40%) | 1 (1=0-20%) | 2 (2=21-40%) | 4 (4=61-80%) | 2 (2=21-40%) | 3 (3=41-60%) | 3 (3=41-60%) | 3 (3=41-60%) | 1 (1=0-20%) | 3 (3=41-60%) | 0 | 2 (2=21-40%) | 5 (5=81-100%) | 1 (1=0-20%) | 3 (3=41-60%) | 0 | 1 (1=0-20%) | Pre-emergence Test AMAPA, percentage damage caused to the plant (five-point scale) ([4]; 250 g/Ha (*)): 1 (1=0-20%); Pre-emergence Test IPOHE, percentage damage caused to the plant (five-point scale) ([6]; 250 g/Ha (*)): 0; Pre-emergence Test ECHCG, percentage damage caused to the plant (five-point scale) ([8]; 250 g/Ha (*)): 1 (1=0-20%); Pre-emergence Test SETFA, percentage damage caused to the plant (five-point scale) (Setaria faberi (SETFA) [11]; 250 g/Ha (*)): 3 (3=41-60%) |
| CCn1c(Cn2ccc(OCCOC)n2)cc(=O)c(C(=O)O)c1-c1ccc(Cl)c(Cl)c1 [Compound 161, 2-(3,4-dichlorophenyl)-1-ethyl-6-[[3-(2-methoxyethoxy)pyrazol-1-yl]methyl]-4-oxo-pyridine-3-carboxylic acid] | 0 | 1 (1=0-20%) | 0 | 0 | 1 (1=0-20%) | 2 (2=21-40%) | 3 (3=41-60%) | 3 (3=41-60%) | 2 (2=21-40%) | 3 (3=41-60%) | 3 (3=41-60%) | 1 (1=0-20%) | 3 (3=41-60%) | 1 (1=0-20%) | 0 | 4 (4=61-80%) | 1 (1=0-20%) | 1 (1=0-20%) | 0 | 0 | Pre-emergence Test AMAPA, percentage damage caused to the plant (five-point scale) ([4]; 250 g/Ha (*)): 0; Pre-emergence Test IPOHE, percentage damage caused to the plant (five-point scale) ([6]; 250 g/Ha (*)): 0; Pre-emergence Test ECHCG, percentage damage caused to the plant (five-point scale) ([8]; 250 g/Ha (*)): 0; Pre-emergence Test SETFA, percentage damage caused to the plant (five-point scale) (Setaria faberi (SETFA) [11]; 250 g/Ha (*)): 1 (1=0-20%) |
